Assay results published in patent US20050208496A1, “Methods of testing for bronchial asthma or chronic obstructive pulmonary disease” (Genox Research, Inc., priority 2002, published 2005).

System: respiratory epithelial cells

With “IL-13: human IL-13 (Peprotech, Inc.) added to the medium at 50 ng/mL to stimulate respiratory epithelial cells” the “TGM2 (38404_at) expression fold change upon IL-13 stimulation” value (lot 1, Day 7, AI method) was 2.8 fold, the “TSPAN-3 (38612_at) expression, fold change upon IL-13 stimulation” value (lot 1, Day 7, AI method) was 2.7 fold and the “TXNRD1 (39425_at) expression fold change upon IL-13 stimulation” value (lot 1, Day 7, AI method) was 2.5 fold. For the same substance, the “UBE2L6 (40505_at) expression fold change upon IL-13 stimulation” value (lot 1, Day 7, AI method) was 5.1 fold, the “UFD1L (811_at) expression, fold change upon IL-13 stimulation” value (lot 1, Day 7, AI method) was 5.1 fold and the “W06879 (57696_at) expression fold change” value (lot 1, Day 7, AI method) was 2.1 fold. The “ZNF263 (33288_i_at) expression fold change” value (lot 1, Day 7, AI method) was 2.6 fold, the “diubiquitin (39959_at) expression, fold change upon IL-13 stimulation” value (lot 1, Day 7, AI method) was 4.3 fold and the “AA053401 (56234_r_at) expression change” value (lot 1, Day 7, IMM) was −5.7. The “AA059458 (65626_at) expression change” value (lot 1, Day 7, IMM) was −3.1, the “AA456099 (59567_at) expression change” value (lot 1, Day 7, IMM) was −2.3 and the “AF052107 38262_at expression change” value (lot 1, Day 7, IMM) was −4.5. For the same substance, the “AI050855 (64285_at) expression change” value (lot 1, Day 7, IMM) was −3.7, the “AI432375 (49819_at) expression change” value (lot 1, Day 7, IMM) was −6.3 and the “AI770116 (70124_at) expression change” value (lot 1, Day 7, IMM) was −2.1. The “AI798733 (64163_at) expression change” value (lot 1, Day 7, IMM) was −2.3, the “AI829641 (84270_at) expression change” value (lot 1, Day 7, IMM) was 11.7 and the “AI948584 48086_at expression change” value (lot 1, Day 7, IMM) was −6.2. The “AQP5 32909_at expression change” value (lot 1, Day 7, IMM) was −2.5, the “ARHGEF4 36524_at expression change” value (lot 1, Day 7, IMM) was −2.2 and the “BARX2 35425_at expression change” value (lot 1, Day 7, IMM) was −2.7. For the same substance, the “CBLB 514_at expression change” value (lot 1, Day 7, IMM) was −2.4, the “CBLB 35632_at expression change” value (lot 1, Day 7, IMM) was −2 and the “CRABP-II 1057_at expression change” value (lot 1, Day 7, IMM) was −2.7. The “DKFZp434K1210 44682_at expression change” value (lot 1, Day 7, IMM) was −2.1, the “DSC3 (79615_at) expression change” value (lot 1, Day 7, IMM) was −4 and the “DSC3a, b 47119_at expression change” value (lot 1, Day 7, IMM) was −3.4. The “DSC3a, b 79615_at expression change” value (lot 1, Day 7, IMM) was −4, the “EIF4EBP1 (54152_at) expression change” value (lot 1, Day 7, IMM) was −7.3 and the “FLJ10718 52072_at expression change” value (lot 1, Day 7, IMM) was −8. For the same substance, the “FLJ20373 54030_at expression change” value (lot 1, Day 7, IMM) was −2.1, the “FLJ23516 47534_at expression change” value (lot 1, Day 7, IMM) was −5.4 and the “GJA1 32531_at expression change” value (lot 1, Day 7, IMM) was −5.5. The “HEY1 44783_s_at expression change” value (lot 1, Day 7, IMM) was −3.4, the “HIN-1 (46200_at) expression change” value (lot 1, Day 7, IMM) was −4 and the “ID1 36619_r_at expression change” value (lot 1, Day 7, IMM) was −3.9. The “IL20RA 42969_at expression change” value (lot 1, Day 7, IMM) was −2.9, the “IVL 36355_at expression change” value (lot 1, Day 7, IMM) was −4.5 and the “K1IAA1102 (64345_s_at) expression change” value (lot 1, Day 7, IMM) was −5.6. The “KCNMA1 (53796_at) expression change” value (lot 1, Day 7, IMM) was −3, the “KIAA0878 (48793_at) expression change” value (lot 1, Day 7, IMM) was −2.4 and the “KLF7 34216_at expression change” value (lot 1, Day 7, IMM) was −6.3. For the same substance, the “KLF7 (42769_at) expression change” value (lot 1, Day 7, IMM) was −3.7, the “KRT6B (62998_at) expression change” value (lot 1, Day 7, IMM) was −2.5 and the “KRT15 37582_at expression change” value (lot 1, Day 7, IMM) was −2. The “LOC51297 (49616_at) expression change” value (lot 1, Day 7, IMM) was −3.9, the “LOC51297 (55440_at) expression change” value (lot 1, Day 7, IMM) was −3.7 and the “LOC51297 (55442_g_at) expression change” value (lot 1, Day 7, IMM) was −12.8. For the same substance, the “LOC129642 (42065_at) expression change” value (lot 1, Day 7, IMM) was −4.3, the “LOC129642 (58288_at) expression change” value (lot 1, Day 7, IMM) was −3.9 and the “MGC14128 55924_at expression change” value (lot 1, Day 7, IMM) was −2.7. The “MGC14128 (51669_r_at) expression change” value (lot 1, Day 7, IMM) was −2.1, the “MGC16207 (65876_at) expression change” value (lot 1, Day 7, IMM) was −2.3 and the “N71183 52473_at expression change” value (lot 1, Day 7, IMM) was −2.1. For the same substance, the “PR01489 57777_at expression change” value (lot 1, Day 7, IMM) was −10.9, the “RAC2 32737_at expression change” value (lot 1, Day 7, IMM) was −3.2 and the “SEMA4B (46709_at) expression change” value (lot 1, Day 7, IMM) was −2.2. The “SERPINA3 (75248_at) expression change” value (lot 1, Day 7, IMM) was −16.3, the “SPRR1B 37160_at expression change” value (lot 1, Day 7, IMM) was −2.4 and the “T52027 (63150_at) expression change” value (lot 1, Day 7, IMM) was 2.5. For the same substance, the “TCF8 33439_at expression change” value (lot 1, Day 7, IMM) was −2.4, the “TGFBI (68339_at) expression change” value (lot 1, Day 7, IMM) was −3.2 and the “TNNT1 36113_s_at expression change” value (lot 1, Day 7, IMM) was −4.9. The “TNRC3 41246_at expression change” value (lot 1, Day 7, IMM) was −2.4, the “TPM1 36790_at expression change” value (lot 1, Day 7, IMM) was −5.5 and the “TPM1 36791_g_at expression change” value (lot 1, Day 7, IMM) was −7.5. For the same substance, the “TPM1 36792_at expression change” value (lot 1, Day 7, IMM) was −5.7, the “UGB 39220_at expression change” value (lot 1, Day 7, IMM) was −8.2 and the “VIM 34091_s_at expression change” value (lot 1, Day 7, IMM) was −6.6. The “W55956 46700_at expression change” value (lot 1, Day 7, IMM) was −2.4, the “W72331 49486 at expression change” value (lot 1, Day 7, IMM) was −4.8 and the “ADAM8 (40712_at) expression, fold change upon IL-13 stimulation” value (lot 1, Day 7, IMM method) was 2.8 fold. For the same substance, the “ADAM28 (35479_at) expression, fold change upon IL-13 stimulation” value (lot 1, Day 7, IMM method) was 6.4 fold, the “AI659927 (54033_at) expression fold change” value (lot 1, Day 7, IMM method) was 11 fold and the “AI718385 (53061_at) expression fold change” value (lot 1, Day 7, IMM method) was 3.2 fold. The “AI809925 (53010_at) expression fold change” value (lot 1, Day 7, IMM method) was 2.8 fold, the “AI989346 (52327_s_at) expression fold change” value (lot 1, Day 7, IMM method) was 2.1 fold and the “AKAP2 (35985_at) expression, fold change upon IL-13 stimulation” value (lot 1, Day 7, IMM method) was 2.2 fold. For the same substance, the “ALOX15 (34636_at) expression, fold change upon IL-13 stimulation” value (lot 1, Day 7, IMM method) was 118.8 fold, the “AW019985 (48826_s_at) expression fold change” value (lot 1, Day 7, IMM method) was 10.8 fold and the “BRCA1 (626_s_at) expression fold change” value (lot 1, Day 7, IMM method) was 2.4 fold. The “BST2 (39061_at) expression, fold change upon IL-13 stimulation” value (lot 1, Day 7, IMM method) was 5.4 fold, the “C21orf11 (58957_at) expression fold change” value (lot 1, Day 7, IMM method) was 6 fold and the “CCND3 (1794_at) expression fold change upon IL-13 stimulation” value (lot 1, Day 7, IMM method) was 2.3 fold. For the same substance, the “CDH6 (1620_at) expression fold change upon IL-13 stimulation” value (lot 1, Day 7, IMM method) was 4.2 fold, the “CDH6 (57421_at) expression fold change” value (lot 1, Day 7, IMM method) was 4.5 fold and the “CDH26 (46916_at) expression fold change” value (lot 1, Day 7, IMM method) was 9.3 fold. The “CH25H (32363_at) expression, fold change upon IL-13 stimulation” value (lot 1, Day 7, IMM method) was 11.4 fold, the “CLDN4 (35276_at) expression, fold change upon IL-13 stimulation” value (lot 1, Day 7, IMM method) was 2.1 fold and the “CLDN5 (38995_at) expression, fold change upon IL-13 stimulation” value (lot 1, Day 7, IMM method) was 3.9 fold. For the same substance, the “CTSC (133_at) expression, fold change upon IL-13 stimulation” value (lot 1, Day 7, IMM method) was 5.6 fold, the “CXCL16 (44095_at) expression fold change” value (lot 1, Day 7, IMM method) was 2.6 fold and the “DD96 (31610_at) expression, fold change upon IL-13 stimulation” value (lot 1, Day 7, IMM method) was 9.5 fold. For the same substance, the “DKFZP564O0823 (41402_at) expression, fold change upon IL-13 stimulation” value (lot 1, Day 7, IMM method) was 9.6 fold, the “DKFZP566J091 (57197_at) expression fold change” value (lot 1, Day 7, IMM method) was 4.2 fold and the “DKFZp564N1116 (37784_at) expression, fold change upon IL-13 stimulation” value (lot 1, Day 7, IMM method) was 6 fold. The “DPP4 (34823_at) expression fold change upon IL-13 stimulation” value (lot 1, Day 7, IMM method) was 3.9 fold, the “DPYD (38220_at) expression fold change upon IL-13 stimulation” value (lot 1, Day 7, IMM method) was 6.9 fold and the “EMILIN-2 (51628_at) expression fold change” value (lot 1, Day 7, IMM method) was 5 fold. For the same substance, the “FETUB (32620_at) expression fold change” value (lot 1, Day 7, IMM method) was 7.4 fold, the “FETUB (33101_g_at) expression fold change” value (lot 1, Day 7, IMM method) was 7.7 fold and the “FLJ10261 (43366_at) expression fold change” value (lot 1, Day 7, IMM method) was 8.4 fold. For the same substance, the “FLJ22693 (53777_at) expression fold change” value (lot 1, Day 7, IMM method) was 2.2 fold, the “GADD45G (39154_at) expression fold change upon IL-13 stimulation” value (lot 1, Day 7, IMM method) was 3.1 fold and the “HAS3 (54604_at) expression fold change” value (lot 1, Day 7, IMM method) was 2.2 fold. For the same substance, the “HLA-F (37420_i_at) expression, fold change upon IL-13 stimulation” value (lot 1, Day 7, IMM method) was 2.4 fold.
